This note sets out measurements from patent US20160166604A1, “Thiol-Sensitive Positive Inotropes” (priority 2005, published 2016).

The target of one experiment is T1, RyR2 (Mus musculus, UniProt E9Q401).
T1 construct: endogenous in cells; host or cells: freshly isolated adult mouse cardiac myocytes
Description: RyR2 single channel recordings in planar lipid bilayers. The format is biochemical. Conditions: for open probability of the channel (Po): control 0.16±0.03. The method, then: Recording of single RyR2 in lipid bilayers was performed as previously described. Jiang, M. T. et al., Circ. Res., 91, 1015-1022 (2002). Briefly, a phospholipid bilayer of PE:PS (1:1 dissolved in n-decane to 20 mg/ml) was formed across an aperture of ˜300 μm diameter in a delrin cup. The cis chamber (900 μl) was the voltage control side connected to the head stage of a 200 A Axopatch amplifier, while the trans chamber (800 μl) was held at virtual ground. Both chambers were initially filled with 50 mM cesium methanesulfonate and 10 mM Tris/Hepes pH 7.2. After bilayer formation, cesium methanesulfonate was raised to 300 mM in the cis side and 100 to 200 μg of mouse cardiac SR vesicles was added. After detection of channel openings, Cs^+ in the trans chamber was raised to 300 mM to collapse the chemical gradient. Single channel data were collected at steady voltages (−30 mV) for 2-5 min. Channel activity was recorded with a 16-bit VCR-based acquisition and storage system at a 10 kHz sampling rate. Signals were analyzed after filtering with an 8-pole Bessel filter at a sampling frequency of 1.5-2 kHz. Data acquisition and analysis were done with Axon Instruments software and hardware (pClamp v8.0, Digidata 200 AD/DA interface).
To further test whether HNO directly interacted with RyR2 proteins to increase open probability, purified reconstituted RyR2 were expressed in planar lipid bilayers and steady-state activity recorded with or without AS. The cis (cytosolic) solution contained 10 μM activating Ca^2+ and recordings were made at positive 30 mV holding potential. […] The probability of the channel being open (Po) increased from an average 0.16±0.03 without AS to 0.46±0.07 at 0.3 mM AS added to the cytoplasmic side of the channel (n=4). This was reversible upon addition of 2 mM DTT (0.11±0.04). These findings support direct HNO-RyR2 interaction likely via a reversible reaction with thiol groups in the protein.

For experiment [1], the system named is isolated mouse ventricular myocytes. Description: Sarcomere shortening in field-stimulated isolated mouse ventricular myocytes. The format is cell-based. The method, then:
Wild type 2-4 month old mice were anesthetized with intraperitoneal pentobarbital sodium (100 mg/kg/ip). Hearts were perfused as previously described. Mongillo, M. et al., Circ. Res., 98, 226-234 (2006). To assess for sarcomere shortening, cells were imaged using field stimulation (Warner instruments) in an inverted fluorescence microscope (Diaphot 200; Nikon, Inc). Sarcomere length was measured by real-time Fourier transform (IonOptix MyoCam, CCCCD100M) and cell twitch amplitude is expressed as a percentage of resting cell length. Twitch kinetics was quantified by measuring the time to peak shortening and the time from peak shortening to 50% relaxation. For whole calcium transient measurements, myocytes were loaded with the Ca^2+ indicator fluo-4/AM (Molecular Probes, 20 μM for 30 min) and Ca^2+ transients were measured under field-stimulation at 0.5 Hz in perfusion solution by confocal laser scanning microscope (LSM510, Carl Zeiss). Digital image analysis used customer-designed programs coded in Interactive Data Language (IDL).
Nitroxyl (HNO) confers positive inotropy in vivo. Here, it was determined whether HNO action stems from a direct influence on sarcoplasmic reticulum (SR) Ca^2+ cycling, involving enhanced Ca^2+ release from ryanodine receptors (RyR2). Myocytes were isolated from ST mice, suspended in Tyrode's solution (1 mM Ca^2+) and field stimulated (0.5 Hz, 25° C.). Sarcomere shortening (SS) was assessed by real-time image analysis, Ca^2+ transients from Indo-1 fluorescence. RyR2 activity was determined by optical imaging of Ca^2+ release from single Ca^2+ release units.

For experiment [2], the system named is cardiac myocytes from WT and Gαq overexpressing FVB/N mice. The experiment can be described thus: Sarcomere shortening in cardiac myocytes from WT and Gαq overexpressing mice. The format is cell-based, mouse. Conditions: for increase in sarcomere shortening: Gαq myocytes. The protocol:
Cardiac myocytes were isolated from WT and Gαq overexpressing 2-6 month old FVB/N mice, suspended in Tyrode's solution (1 mM calcium) and field stimulated at 0.5 Hz at 23° C. Sarcomere shortening (SS) was assessed by real-time image analysis; data are presented at steady-state (10 minutes drug infusion).

A short description of experiment [3]: End-diastolic pressure-volume relationship (EDPVR) in chronically instrumented dogs with pacing-induced cardiac failure. Format: in vivo. The note with it: CHF dog preparations. The protocol:
Adult male mongrel dogs (22-25 kg) were chronically instrumented for pressure-dimension analysis as described. See, Paolocci et al., “Positive Inotropic and Lusitropic Effects of HNO/NO− in Failing Hearts: Independence from Beta-Adrenergic Signaling,” Proc. Natl. Acad. Sci. USA., 100, 5537-5542 (2003); and Senzaki et al., Circulation, 101, 1040-1048 (2000). Animals were anesthetized with 1% to 2% halothane after induction with sodium thiopental (10-20 mg/kg, i.v.). The surgical/experimental animal protocol was approved by the Johns Hopkins University Animal Care and Use Committee. […] Cardiac failure was induced by rapid ventricular pacing for 3 weeks as described. See, Paolocci et al., supra, and Senzaki et al., supra.
Hemodynamic data were digitized at 250 Hz. […] These relations strongly correlate with results from pressure-volume data in normal and failing hearts, as previously validated. Cardiovascular function was assessed by stroke dimension, fractional shortening (stroke dimension/end-diastolic dimension [EDD]), estimated cardiac output (stroke dimension×HR), peak rate of pressure rise (dP/dtmax), end-systolic elastance (Ees, slope of end-systolic pressure-dimension relation [ESPDR]), the slope of dP/dtmax-EDD relation (DEDD) (see, Little, Circ Res., 56:808-815 (1985)), pre-recruitable stroke work (PRSW), (based on dimension-data), estimated arterial elastance (Ea, end systolic pressure/stroke dimension) and estimated total resistance (RT, […]). Ees, DEDD and PRSW provide load-insensitive contractility measures.
The end-diastolic pressure-volume relationship (EDPVR) was determined applying non-linear regression analysis to the end-diastolic pressure and volume points (Ped and Ved, respectively), according to Kass, Cardiol Clin., 18, 571-86 (2000) (Review).
In order to evaluate the impact of each pharmacological intervention on the EDPVR, changes in end-diastolic pressure from baseline (ΔPed) at volumes providing baseline end-diastolic pressure of […] mmHg EDP (V10, V15, V20, respectively) were determined (FIG. 5).

Where “and” joins values, the source holds several entries; their conditions need not be identical. Equal values may be shown once. Entries after “also recorded” stand apart in the source; their conditions may differ.

T1 sequence (E9Q401 whole entry): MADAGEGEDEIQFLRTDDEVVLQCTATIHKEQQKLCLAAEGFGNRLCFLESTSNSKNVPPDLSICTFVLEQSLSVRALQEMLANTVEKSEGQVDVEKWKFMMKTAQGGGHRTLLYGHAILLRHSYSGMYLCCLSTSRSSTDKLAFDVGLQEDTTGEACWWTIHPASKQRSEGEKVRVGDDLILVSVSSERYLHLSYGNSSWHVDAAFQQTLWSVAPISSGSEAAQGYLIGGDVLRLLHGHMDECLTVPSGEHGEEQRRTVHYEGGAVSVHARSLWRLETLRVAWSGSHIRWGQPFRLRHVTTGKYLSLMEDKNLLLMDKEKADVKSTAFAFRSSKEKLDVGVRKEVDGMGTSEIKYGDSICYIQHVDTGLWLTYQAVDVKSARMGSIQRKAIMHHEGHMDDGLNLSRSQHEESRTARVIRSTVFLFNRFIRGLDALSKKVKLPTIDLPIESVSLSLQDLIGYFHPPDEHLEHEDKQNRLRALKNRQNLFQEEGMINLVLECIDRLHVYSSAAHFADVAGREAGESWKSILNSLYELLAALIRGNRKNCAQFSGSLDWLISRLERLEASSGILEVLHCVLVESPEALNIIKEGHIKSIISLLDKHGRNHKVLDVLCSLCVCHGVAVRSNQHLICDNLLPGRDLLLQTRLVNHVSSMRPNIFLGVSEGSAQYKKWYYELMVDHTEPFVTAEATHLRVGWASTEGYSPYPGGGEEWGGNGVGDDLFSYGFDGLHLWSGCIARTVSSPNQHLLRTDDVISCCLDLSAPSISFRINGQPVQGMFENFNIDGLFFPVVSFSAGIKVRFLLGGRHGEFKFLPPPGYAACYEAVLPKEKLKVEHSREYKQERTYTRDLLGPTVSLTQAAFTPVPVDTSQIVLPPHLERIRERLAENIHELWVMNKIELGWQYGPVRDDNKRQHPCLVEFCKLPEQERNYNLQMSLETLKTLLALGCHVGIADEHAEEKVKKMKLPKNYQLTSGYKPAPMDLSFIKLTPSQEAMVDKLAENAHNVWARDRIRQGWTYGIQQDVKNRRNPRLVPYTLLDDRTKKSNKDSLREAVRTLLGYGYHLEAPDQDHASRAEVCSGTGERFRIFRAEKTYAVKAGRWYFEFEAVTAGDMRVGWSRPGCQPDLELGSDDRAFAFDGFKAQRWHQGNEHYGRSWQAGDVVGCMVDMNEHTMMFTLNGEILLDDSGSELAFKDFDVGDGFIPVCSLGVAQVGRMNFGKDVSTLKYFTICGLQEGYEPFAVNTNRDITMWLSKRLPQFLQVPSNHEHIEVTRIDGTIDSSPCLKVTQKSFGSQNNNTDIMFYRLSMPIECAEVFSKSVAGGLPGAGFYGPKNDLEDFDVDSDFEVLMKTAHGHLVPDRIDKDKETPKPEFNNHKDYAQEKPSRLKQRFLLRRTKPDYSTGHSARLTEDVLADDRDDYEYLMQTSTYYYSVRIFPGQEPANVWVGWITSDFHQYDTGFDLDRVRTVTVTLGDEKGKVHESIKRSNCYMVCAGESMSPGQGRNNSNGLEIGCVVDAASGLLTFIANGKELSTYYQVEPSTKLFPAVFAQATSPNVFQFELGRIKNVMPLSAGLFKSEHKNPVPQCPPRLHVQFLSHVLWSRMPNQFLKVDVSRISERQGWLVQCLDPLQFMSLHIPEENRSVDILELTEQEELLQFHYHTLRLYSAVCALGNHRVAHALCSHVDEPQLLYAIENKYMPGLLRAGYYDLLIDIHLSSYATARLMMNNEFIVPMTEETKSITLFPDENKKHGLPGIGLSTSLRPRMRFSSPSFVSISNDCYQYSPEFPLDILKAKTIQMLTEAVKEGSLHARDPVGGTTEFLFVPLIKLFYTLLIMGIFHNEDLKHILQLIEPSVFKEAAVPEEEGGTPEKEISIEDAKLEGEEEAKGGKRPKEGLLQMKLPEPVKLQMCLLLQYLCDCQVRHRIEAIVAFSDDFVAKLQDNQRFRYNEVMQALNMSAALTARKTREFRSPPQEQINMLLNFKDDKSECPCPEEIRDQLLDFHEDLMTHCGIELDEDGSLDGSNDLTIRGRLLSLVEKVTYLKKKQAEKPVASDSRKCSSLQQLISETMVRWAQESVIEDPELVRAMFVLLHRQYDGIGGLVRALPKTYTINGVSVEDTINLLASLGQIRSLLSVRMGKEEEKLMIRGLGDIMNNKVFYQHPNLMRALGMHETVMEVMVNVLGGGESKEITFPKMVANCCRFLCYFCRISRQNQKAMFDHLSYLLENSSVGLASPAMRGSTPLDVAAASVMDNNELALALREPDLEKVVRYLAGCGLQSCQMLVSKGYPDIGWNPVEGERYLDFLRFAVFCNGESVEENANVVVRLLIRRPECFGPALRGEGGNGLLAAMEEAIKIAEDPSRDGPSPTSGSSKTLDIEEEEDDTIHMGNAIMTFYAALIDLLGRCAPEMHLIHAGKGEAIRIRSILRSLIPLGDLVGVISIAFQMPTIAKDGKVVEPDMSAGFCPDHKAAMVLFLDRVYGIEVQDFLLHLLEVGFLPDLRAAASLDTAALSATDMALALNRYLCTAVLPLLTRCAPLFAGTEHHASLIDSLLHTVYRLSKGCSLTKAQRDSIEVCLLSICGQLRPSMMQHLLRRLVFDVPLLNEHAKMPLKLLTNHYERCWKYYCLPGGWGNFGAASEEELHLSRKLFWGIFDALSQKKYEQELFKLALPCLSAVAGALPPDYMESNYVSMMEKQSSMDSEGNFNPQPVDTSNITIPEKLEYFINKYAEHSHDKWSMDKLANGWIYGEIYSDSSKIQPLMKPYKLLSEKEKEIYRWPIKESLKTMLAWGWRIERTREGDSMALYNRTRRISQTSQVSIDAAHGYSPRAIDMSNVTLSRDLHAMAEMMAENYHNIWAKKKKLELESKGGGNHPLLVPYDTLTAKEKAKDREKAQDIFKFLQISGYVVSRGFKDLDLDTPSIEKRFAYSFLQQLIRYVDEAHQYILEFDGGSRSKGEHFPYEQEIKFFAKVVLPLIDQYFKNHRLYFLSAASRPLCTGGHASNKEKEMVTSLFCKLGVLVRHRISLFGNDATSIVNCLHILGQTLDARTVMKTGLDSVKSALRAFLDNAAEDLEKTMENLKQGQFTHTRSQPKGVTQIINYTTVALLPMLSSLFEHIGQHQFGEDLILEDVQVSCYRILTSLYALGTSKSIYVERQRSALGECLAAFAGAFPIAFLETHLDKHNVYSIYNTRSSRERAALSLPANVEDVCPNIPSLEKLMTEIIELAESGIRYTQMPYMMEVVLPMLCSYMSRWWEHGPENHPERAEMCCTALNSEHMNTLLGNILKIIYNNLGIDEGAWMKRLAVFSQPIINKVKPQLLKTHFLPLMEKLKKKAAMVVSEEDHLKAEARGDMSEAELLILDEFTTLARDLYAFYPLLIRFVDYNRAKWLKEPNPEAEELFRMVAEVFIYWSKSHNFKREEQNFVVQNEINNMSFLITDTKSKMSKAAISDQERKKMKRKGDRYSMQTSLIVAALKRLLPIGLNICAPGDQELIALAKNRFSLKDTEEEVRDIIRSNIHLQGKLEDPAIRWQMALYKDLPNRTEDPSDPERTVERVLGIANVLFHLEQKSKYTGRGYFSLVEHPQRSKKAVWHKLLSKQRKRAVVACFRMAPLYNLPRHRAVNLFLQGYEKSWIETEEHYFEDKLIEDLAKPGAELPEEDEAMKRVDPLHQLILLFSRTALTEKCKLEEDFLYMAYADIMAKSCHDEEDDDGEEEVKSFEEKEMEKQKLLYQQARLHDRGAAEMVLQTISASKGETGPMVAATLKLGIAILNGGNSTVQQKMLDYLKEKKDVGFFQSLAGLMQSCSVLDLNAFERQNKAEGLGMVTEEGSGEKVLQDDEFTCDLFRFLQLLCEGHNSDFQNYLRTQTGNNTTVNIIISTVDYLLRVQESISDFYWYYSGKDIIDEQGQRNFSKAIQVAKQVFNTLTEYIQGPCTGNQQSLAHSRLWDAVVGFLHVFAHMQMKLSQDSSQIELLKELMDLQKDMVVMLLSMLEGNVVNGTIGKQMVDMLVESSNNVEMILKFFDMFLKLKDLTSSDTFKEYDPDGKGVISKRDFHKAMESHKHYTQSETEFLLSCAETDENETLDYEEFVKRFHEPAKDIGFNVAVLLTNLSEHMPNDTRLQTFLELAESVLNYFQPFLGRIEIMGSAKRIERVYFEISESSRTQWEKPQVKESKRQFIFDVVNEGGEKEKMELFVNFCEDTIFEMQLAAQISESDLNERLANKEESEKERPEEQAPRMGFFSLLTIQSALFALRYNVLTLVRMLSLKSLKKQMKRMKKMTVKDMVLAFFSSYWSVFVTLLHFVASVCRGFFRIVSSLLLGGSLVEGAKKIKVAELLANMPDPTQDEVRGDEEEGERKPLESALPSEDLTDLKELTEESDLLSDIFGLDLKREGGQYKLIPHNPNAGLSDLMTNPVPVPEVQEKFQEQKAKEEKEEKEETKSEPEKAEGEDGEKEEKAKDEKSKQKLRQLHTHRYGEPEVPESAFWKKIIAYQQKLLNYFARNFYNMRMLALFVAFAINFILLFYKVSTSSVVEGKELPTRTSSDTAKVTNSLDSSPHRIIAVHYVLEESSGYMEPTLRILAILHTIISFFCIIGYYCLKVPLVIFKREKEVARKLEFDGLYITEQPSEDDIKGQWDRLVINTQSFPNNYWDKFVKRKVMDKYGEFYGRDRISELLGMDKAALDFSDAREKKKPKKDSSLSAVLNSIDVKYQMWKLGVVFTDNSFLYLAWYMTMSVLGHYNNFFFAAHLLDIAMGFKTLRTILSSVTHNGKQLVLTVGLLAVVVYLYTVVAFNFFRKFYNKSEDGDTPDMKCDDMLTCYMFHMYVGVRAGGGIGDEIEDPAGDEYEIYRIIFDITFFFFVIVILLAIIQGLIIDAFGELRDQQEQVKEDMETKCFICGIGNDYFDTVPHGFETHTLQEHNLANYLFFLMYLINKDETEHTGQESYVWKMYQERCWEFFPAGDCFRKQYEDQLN

For the compound `[Na+].[Na+].[O-][N+]([O-])=NO` [AS, Angeli's salt], the “open probability of the channel (Po)” value on RyR2 (0.1 mM AS, cis side) was found to be 0.25±0.05; at RyR2 (0.3 mM AS, cytoplasmic side), 0.46±0.07; at RyR2 (1.0 mM AS, cis side) it was 0.69±0.11. In addition, on RyR2 (2 mM DTT added to cis side), the “Po of AS-activated channels after DTT” value was determined as 0.11±0.04. On RyR2 (AS 0.1 to 1 mM), the unitary channel conductance result was “without altering”. For the same compound, the “myocyte relaxation hastened (time to 50% re-lengthening)” value in experiment [1] (AS) is 10-20%. Further, the “time until response plateaued” value in experiment [1] (AS) lay within 10 to 15 min. Further, the “increase in sarcomere shortening” value in experiment [1] (AS 0.5 mM) is 73±31% and ~100%; in experiment [1] (AS 1 mM), 131±31% and 117±25% and ~100%; in experiment [2] (AS 250 μM), 22±11%; in experiment [2] (AS 500 μM), 40±11%. The “contractility response (sarcomere shortening) after GSH pre-treatment” value in experiment [1] (AS 0.5 mM after GSH ethyl ester 4 mM for 3 hrs) is 57±19%. The “increase in sarcomere shortening with guanylate cyclase inhibition” value in experiment [1] (AS 1 mM with ODQ, n=15, p=NS vs. AS 1 mM) is reported as 157±40%. The “AS concentration above which myocyte contractility rose” value in experiment [1] (AS 10^-6 to 10^-3 M, C57/BL6 myocytes) is greater than 100 µM. In addition, the “effect on sarcomere shortening” value in experiment [1] (AS <0.1 mM) was “no effect”. Besides, the “effect of co-application on ISO (2.5 nM)-stimulated sarcomere shortening” value in experiment [1] (DEA/NO 0.25 mM, AS 0.5 mM) is on record as “doubled”. Moreover, the “sarcomere shortening response after GSH pre-incubation” value in experiment [1] (GSH 4 mM for 3 hrs, compared with 1 mM AS alone, n=14) is 58±19%. The “AS inotropy on co-infusion of N-acetyl-L-cysteine” value in experiment [1] (NAC 3 mM) is “abolished”. Also, the “effect of PKG inhibitor Rp-8Br-cGMPs on the agent's inotropy” value in experiment [1] (Rp-8Br-cGMPs 10 μM pre-treatment) is recorded as “did not alter; also recorded: no impact”. For the same compound, in experiment [1] (Rp-CPT-cAMPs 100 μM pre-treatment), the “effect of PKA inhibitor Rp-CPT-cAMPs on the agent's enhancement of sarcomere shortening” value is reported as “did not alter”. For the same compound, the “reversibility of response after discontinuation” value in experiment [1] (at ≦500 μM, after a similar time period) is given as “fully reversible”. The “AS inotropy on co-treatment with thapsigargin” value in experiment [1] (thapsigargin 3 μM, n=16) was 52±14%. The “positive inotropic effect in Gαq myocytes compared with WT cells” value in experiment [2] (AS infusion) was “not significantly different”. The “effect on end-diastolic pressure-volume relationship (EDPVR)” value in experiment [3] is reported as “declined significantly”.
